# Data as given in patent publication US10870647B2, “Imidazopyridine derivative, method for preparing same, and pharmaceutical composition containing same as active ingredient for preventing or treating cancer” (DAEGU-GYEONGBUK MEDICAL INNOVATION FOUNDATION, priority 2016, dated 2020).
# Like-named read-outs stand apart in the source and are kept apart here.
# Columns and labels:
# Assay in all cases: Kinase selectivity, scanMAX Kinase assay panel (DiscoverX), % control at 1 uM
# Assay type in all cases: binding
# [1] = target: T1, scanMAX Kinase assay panel (Homo sapiens, UniProt Q13873); conditions: BMPR2; 1 uM; read-out: Percent Control (%)
# T1 construct: purchased DiscoverX
# T1 sequence (Q13873 27-1038): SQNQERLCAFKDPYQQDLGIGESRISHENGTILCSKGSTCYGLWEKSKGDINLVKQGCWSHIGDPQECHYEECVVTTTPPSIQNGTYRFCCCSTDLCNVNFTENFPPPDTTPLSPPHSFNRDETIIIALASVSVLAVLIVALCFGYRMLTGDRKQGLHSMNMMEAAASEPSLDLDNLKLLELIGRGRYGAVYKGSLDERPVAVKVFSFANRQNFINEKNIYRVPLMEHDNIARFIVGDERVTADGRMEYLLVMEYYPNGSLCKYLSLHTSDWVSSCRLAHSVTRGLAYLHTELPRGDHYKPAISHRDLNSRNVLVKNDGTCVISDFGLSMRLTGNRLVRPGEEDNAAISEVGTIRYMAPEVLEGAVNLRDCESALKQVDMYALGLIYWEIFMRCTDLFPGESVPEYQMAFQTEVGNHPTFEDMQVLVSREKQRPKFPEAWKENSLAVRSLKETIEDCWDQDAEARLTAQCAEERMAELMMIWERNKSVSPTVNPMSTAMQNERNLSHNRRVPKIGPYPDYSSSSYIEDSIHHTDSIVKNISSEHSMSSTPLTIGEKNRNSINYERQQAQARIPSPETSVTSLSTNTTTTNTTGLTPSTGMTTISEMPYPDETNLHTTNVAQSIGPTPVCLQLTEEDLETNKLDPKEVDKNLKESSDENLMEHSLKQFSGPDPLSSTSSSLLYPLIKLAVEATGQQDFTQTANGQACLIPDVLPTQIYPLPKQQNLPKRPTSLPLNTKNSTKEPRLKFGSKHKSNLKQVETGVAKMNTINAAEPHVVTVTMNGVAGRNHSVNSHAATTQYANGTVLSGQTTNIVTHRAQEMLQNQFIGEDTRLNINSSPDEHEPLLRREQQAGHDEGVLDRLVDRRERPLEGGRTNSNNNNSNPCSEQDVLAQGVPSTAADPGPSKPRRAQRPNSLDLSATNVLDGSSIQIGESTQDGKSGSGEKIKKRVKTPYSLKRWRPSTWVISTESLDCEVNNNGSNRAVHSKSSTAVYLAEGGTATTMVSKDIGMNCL
# Procedure, shortened: (§1)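 1 uM cpd (DMSO) per kinase; % ctrl = [cpd − pos ctrl]/[neg ctrl − pos ctrl] × 100; hit if <35.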
# [2] = target: T2, scanMAX Kinase assay panel (Homo sapiens, UniProt P11362); conditions: FGFR1; 1 uM; read-out: Percent Control (%)
# T2 construct: purchased DiscoverX
# T2 sequence (P11362 22-822): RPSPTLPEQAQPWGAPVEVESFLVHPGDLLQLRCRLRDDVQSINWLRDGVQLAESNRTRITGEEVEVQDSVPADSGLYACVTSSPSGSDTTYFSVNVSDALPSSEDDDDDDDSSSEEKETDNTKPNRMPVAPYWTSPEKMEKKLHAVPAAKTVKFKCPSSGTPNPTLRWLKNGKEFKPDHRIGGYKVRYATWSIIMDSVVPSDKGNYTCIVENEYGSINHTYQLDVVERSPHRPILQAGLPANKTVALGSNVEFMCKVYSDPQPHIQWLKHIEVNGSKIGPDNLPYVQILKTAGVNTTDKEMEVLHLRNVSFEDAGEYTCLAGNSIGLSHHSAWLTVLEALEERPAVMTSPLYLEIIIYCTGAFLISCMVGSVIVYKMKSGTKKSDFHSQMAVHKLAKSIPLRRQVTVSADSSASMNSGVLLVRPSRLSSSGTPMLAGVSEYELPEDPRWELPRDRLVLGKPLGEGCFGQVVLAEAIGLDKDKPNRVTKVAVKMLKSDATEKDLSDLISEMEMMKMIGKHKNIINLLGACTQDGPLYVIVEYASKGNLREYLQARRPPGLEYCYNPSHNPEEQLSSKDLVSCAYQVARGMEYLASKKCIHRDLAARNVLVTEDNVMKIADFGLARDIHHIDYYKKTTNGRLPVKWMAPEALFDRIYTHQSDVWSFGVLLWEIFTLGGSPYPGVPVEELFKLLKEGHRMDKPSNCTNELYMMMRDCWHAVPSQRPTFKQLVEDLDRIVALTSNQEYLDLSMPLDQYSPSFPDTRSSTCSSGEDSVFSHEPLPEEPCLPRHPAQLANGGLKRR
# Procedure, shortened: as §1
# [3] = target: T3, scanMAX Kinase assay panel (Homo sapiens, UniProt Q9BXA7); conditions: TSSK1B; 1 uM; read-out: Percent Control (%)
# T3 construct: purchased DiscoverX
# T3 sequence (Q9BXA7 1-367): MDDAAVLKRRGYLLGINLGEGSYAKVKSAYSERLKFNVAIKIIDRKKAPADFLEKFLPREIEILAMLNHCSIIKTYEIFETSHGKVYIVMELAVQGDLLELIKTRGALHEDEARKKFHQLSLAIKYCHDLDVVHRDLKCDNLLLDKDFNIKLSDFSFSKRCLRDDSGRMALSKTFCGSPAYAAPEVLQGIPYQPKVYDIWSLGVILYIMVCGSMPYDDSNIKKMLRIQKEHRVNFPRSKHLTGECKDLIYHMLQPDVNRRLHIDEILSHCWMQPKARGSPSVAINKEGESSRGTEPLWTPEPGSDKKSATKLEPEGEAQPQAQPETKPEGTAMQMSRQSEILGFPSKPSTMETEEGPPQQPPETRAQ
# Procedure, shortened: as §1
# [4] = target: T4, scanMAX Kinase assay panel (Homo sapiens, UniProt Q96NX5); conditions: CAMK1G; 1 uM; read-out: Percent Control (%)
# T4 construct: purchased DiscoverX
# T4 sequence (Q96NX5 whole entry): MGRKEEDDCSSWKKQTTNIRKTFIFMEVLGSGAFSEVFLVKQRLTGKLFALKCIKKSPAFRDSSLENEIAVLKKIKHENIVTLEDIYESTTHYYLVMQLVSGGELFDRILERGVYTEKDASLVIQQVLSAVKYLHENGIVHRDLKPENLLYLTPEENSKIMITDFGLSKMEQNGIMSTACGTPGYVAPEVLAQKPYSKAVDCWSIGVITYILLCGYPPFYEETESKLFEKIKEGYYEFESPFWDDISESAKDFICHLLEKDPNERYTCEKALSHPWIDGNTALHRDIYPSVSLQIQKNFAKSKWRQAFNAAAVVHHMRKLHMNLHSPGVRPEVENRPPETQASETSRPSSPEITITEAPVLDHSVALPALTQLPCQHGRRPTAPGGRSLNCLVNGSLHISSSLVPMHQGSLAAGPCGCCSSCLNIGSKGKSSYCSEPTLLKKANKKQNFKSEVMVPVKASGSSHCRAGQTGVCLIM
# Procedure, shortened: as §1
# [5] = target: T5, scanMAX Kinase assay panel (Homo sapiens, UniProt Q9HC98); conditions: NEK6; 1 uM; read-out: Percent Control (%)
# T5 construct: purchased DiscoverX
# T5 sequence (Q9HC98 whole entry): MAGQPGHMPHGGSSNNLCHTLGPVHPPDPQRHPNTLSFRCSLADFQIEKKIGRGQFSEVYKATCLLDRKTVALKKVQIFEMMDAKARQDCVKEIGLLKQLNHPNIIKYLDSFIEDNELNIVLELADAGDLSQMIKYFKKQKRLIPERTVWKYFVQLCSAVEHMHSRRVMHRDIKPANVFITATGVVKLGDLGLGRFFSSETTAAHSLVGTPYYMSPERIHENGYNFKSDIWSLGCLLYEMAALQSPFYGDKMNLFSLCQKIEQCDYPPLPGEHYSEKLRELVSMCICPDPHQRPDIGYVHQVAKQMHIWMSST
# Procedure, shortened: as §1
# [6] = target: T6, scanMAX Kinase assay panel (Homo sapiens, UniProt Q8IVW4); conditions: CDKL3; 1 uM; read-out: Percent Control (%)
# T6 construct: purchased DiscoverX
# T6 sequence (Q8IVW4 whole entry): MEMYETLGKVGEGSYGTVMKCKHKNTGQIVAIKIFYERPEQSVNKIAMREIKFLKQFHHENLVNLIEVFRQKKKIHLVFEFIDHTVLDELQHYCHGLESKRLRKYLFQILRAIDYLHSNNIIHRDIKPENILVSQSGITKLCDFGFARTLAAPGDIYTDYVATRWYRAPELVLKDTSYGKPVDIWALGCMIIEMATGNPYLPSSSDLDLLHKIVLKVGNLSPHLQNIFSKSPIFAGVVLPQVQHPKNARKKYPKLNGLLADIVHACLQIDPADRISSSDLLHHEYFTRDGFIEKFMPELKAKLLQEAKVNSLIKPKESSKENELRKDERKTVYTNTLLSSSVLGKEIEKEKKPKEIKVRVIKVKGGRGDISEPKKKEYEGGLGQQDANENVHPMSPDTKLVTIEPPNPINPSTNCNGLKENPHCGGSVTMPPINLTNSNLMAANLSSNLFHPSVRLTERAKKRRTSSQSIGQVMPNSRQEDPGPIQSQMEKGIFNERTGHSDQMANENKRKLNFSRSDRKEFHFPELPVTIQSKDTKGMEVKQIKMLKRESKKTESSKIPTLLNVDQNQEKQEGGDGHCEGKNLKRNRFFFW
# Procedure, shortened: as §1
# [7] = target: T7, scanMAX Kinase assay panel (Homo sapiens, UniProt Q9UHD2); conditions: TBK1; 1 uM; read-out: Percent Control (%)
# T7 construct: purchased DiscoverX
# T7 sequence (Q9UHD2 1-729): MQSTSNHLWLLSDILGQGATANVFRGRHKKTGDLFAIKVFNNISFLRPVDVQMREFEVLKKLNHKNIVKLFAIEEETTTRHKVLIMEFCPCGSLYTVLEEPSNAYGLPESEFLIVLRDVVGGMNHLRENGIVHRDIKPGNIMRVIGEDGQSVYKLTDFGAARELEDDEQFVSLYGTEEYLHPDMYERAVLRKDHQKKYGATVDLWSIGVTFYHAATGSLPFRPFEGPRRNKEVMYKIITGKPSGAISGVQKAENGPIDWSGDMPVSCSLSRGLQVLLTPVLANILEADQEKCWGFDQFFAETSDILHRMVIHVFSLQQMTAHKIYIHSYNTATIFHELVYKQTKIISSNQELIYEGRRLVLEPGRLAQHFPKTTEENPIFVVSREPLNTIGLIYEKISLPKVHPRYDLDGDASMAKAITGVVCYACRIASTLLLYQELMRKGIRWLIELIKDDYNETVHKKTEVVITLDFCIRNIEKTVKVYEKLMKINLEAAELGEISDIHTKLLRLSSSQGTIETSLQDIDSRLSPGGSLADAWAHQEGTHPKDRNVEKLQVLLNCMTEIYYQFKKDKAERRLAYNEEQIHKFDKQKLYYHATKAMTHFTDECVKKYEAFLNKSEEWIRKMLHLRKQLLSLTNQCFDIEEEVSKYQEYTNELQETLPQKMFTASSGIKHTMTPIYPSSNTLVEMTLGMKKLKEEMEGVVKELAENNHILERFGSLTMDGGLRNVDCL
# Procedure, shortened: as §1
# [8] = target: T8, scanMAX Kinase assay panel (Homo sapiens, UniProt P00519, F317I); conditions: 1 uM, read-out: Percent Control (%)
# T8 construct: purchased DiscoverX
# T8 sequence (P00519 whole entry F317I): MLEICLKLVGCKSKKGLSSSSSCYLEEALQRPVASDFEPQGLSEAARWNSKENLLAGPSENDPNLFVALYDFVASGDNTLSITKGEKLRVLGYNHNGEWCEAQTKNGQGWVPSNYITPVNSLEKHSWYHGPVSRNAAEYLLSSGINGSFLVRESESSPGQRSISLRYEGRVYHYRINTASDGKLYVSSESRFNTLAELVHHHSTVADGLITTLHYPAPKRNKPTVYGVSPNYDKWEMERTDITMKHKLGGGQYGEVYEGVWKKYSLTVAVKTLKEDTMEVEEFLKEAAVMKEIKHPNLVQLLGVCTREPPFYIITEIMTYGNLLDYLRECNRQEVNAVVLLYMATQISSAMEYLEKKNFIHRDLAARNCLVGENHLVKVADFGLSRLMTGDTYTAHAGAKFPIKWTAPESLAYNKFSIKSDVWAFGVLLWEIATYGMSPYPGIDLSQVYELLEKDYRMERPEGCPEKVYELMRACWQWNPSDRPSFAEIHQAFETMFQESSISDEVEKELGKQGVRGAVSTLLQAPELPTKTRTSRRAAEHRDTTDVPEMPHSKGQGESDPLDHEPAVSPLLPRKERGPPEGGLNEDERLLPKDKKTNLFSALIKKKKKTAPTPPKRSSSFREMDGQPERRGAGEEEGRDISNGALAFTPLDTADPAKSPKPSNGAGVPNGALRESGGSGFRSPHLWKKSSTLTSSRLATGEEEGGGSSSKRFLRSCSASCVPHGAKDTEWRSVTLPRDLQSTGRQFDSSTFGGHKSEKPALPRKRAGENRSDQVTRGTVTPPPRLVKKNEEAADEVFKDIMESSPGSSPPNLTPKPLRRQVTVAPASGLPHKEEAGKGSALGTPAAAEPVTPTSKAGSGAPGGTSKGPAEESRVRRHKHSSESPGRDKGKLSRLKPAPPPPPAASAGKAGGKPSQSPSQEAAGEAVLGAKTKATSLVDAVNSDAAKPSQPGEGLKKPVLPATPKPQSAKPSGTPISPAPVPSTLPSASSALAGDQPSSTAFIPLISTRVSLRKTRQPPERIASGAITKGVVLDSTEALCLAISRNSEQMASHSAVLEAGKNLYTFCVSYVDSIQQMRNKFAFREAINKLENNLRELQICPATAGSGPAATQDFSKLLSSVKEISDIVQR
# Procedure, shortened: as §1
SMILES,remaining binding at 1 µM [1] [%],remaining binding at 1 µM [2] [%],remaining binding at 1 µM [3] [%],remaining binding at 1 µM [4] [%],remaining binding at 1 µM [5] [%],remaining binding at 1 µM [6] [%],remaining binding at 1 µM [7] [%],remaining binding at 1 µM ([8]; ABL1 (F317I)-nonphosphorylated) [%],remaining binding at 1 µM ([8]; ABL1 (F317I)-phosphorylated) [%]
Cc1ccc(NC(=O)C2(C(=O)Nc3ccc(F)cc3)CC2)cc1C#Cc1cnc2c(Nc3cnn(C(C)C)c3)cccn12 [Example 78],84,100,100,100,100,100,100,36,72
"Cc1cn(-c2cc(NC(=O)c3ccc(C)c(C#Cc4cnc5c(Nc6cnn(C)c6)cccn45)c3)cc(C(F)(F)F)c2)cn1 [Example 12, 4-methyl-N-(3-(4-methyl-1H-imidazol-1-yl)-5-(trifluoromethyl)phenyl)-3-((8-((1-methyl-1H-pyrazol-4-yl)amino)imidazo[1,2-a]pyridin-3-yl)ethynyl)benzamide]",100,6,61,91,88,53,84,10,28
"Cc1ccc(C(=O)Nc2ccc(CN3CCN(C)CC3)c(C(F)(F)F)c2)cc1C#Cc1cnc2c(Nc3cnn(C)c3)cccn12 [Example 1, 4-methyl-3-((8-((1-methyl-1H-pyrazol-4-yl)amino)imidazo[1,2-a]pyridin-3-yl)ethynyl)-N-(4-((4-methylpiperazin-1-yl)methyl)-3-(trifluoromethyl)phenyl)benzamide]",82,0,95,71,65,1,68,1,3
